Patent US9233144B2, “Tyrosine kinase receptor TYRO3 as a therapeutic target in the treatment of cancer” (INSTITUT CURIE, priority 2008, dated 2016)

What was measured:
TYRO3 [1] = experiment: Efficiency of TYRO3 silencing after siRNA transfection (mRNA and western-blot); type: cell-based, human; details: MGH-U3, KK47, J82 and RT112 cells; 50 nM siRNA; 72 hours after transfection
Method: Cells were transfected with 50 nM siRNA (siRNA anti-TYRO3 (SEQ ID No. 1) or control siRNA (scramble, SEQ ID No. 2)) and the efficiency of TYRO3 silencing was assessed 72 hours after transfection by western-blot.

[2] = test system: MGH-U3, KK47, J82 and RT112 cells; experiment: Cell viability after siRNA transfection (trypan blue count); type: cell-based, human; details: 50 nM siRNA, 72 hours after transfection
Method: (§1) After transfection as described in the legend of FIG. 4, cells were treated with trypsin 72 hours after transfection, stained with trypan blue and viable cells were counted in triplicate, using a Malassez hematocytometer. Results are the means+/−SD of two independent experiments carried out in triplicate.
(§2) In order to investigate the role of TYRO3 in cell growth and tumorigenic properties, TYRO3 expression was blocked using RNA interference technology or TYRO3 activity was inhibited using a blocking antibody directed against the extracellular domain of TYRO3 or a soluble receptor consisting of the recombinant extracellular domain of TYRO3 produced in bacteria. Two cell lines expressing TYRO3 (MGH-U3, KK47), two cell lines expressing both TYRO3 and GAS6 (J82, RT112) and one control breast cancer derived cell line presenting a very low TYRO3 expression level (MCF-7) were used. It was shown by western blot using an anti-phosphotyrosine antibody after TYRO3 immunoprecipitation that in each type of cell line (expressing or not GAS6), TYRO was activated (data not shown).

MCF7 cells = experiment: Cell viability after siRNA transfection, control cell line with very low TYRO3 expression; type: cell-based, human
Method: as §1, §2

bladder cancer cells [3] = experiment: TUNEL assay on transfected bladder cancer cells; type: cell-based, human; details: 50 nM siRNA; 72 hours after transfection
Method: 3×10^4 cells per well were seeded on a glass slide in a 24-well plate and transfected with 50 nM siRNA. DNA fragmentation was evaluated 72 hours after transfection, using a TUNEL (deoxynucleotidyl transferase (Tdt)-mediated nick-end labeling) assay detection Kit (Roche Diagnostic, Meylan, France) according to the manufacturer's instructions. The inventors analyzed 600 cells under a light microscope, determining the proportion of labeled cells.

bladder cancer cells [4] = experiment: Cell cycle analysis by flow-cytometry 72 h post siRNA transfection; type: cell-based, human
Method: Results were analyzed using Fisher test, *** p<0.001, * 0.01<p<0.05

[5] = test system: MGH-U3, KK47, RT112 and J82 colonies; experiment: Anchorage-independent colony formation in soft agar; type: cell-based, human; details: 50 nM siRNA, two weeks
Method: 2.10^4 50 nM siRNA-transfected cells in DMEM supplemented with 10% FCS and 0.3% agar, were added to triplicate wells containing medium and 0.8% agar on 12-well plates. The plates were incubated for two weeks and colonies with diameters greater than 50 μm were scored as positive, using a phase-contrast microscope equipped with a measuring grid. Results are the means+/−SD of two independent experiments carried out in triplicate.

MGH-U3 xenografts = experiment: Growth of MGH-U3 xenografts, siRNA treatment; type: in vivo, athymic nude mice
Method: Tumor-bearing mice were treated three times a week by intraperitoneal injection of 4 μg siRNA (control or TYRO3) (6 mice and 12 tumors per group) (The first injection corresponds to day 0). Tumor volume variations are represented on the graph of FIG. 12A. (Wilcoxon rank sum test: *, 0.05<p<0.01, **, 0.01<p<0.001, ***, p<0.001) Inset are pictures of representative tumors observed at the end of the treatment. The upper line tumors are those of TYRO3 siRNA treated mice. The middle line tumors are those of control siRNA treated mice. The lower line tumors are those of PBS treated mice. Tumors were weighted at the end of the experiment (FIG. 12B).
The role of this gene in bladder cancer cell growth in vivo was studied. J82 and MGH-U3 cells were implanted subcutaneously in athymic nude mice. Once tumors were established, mice were randomly selected for treatment with control or TYRO3-specific siRNAs. For J82 xenografts, two weeks after the beginning of treatment only three tumors out of 12 were still observed (FIGS. 11A and 11B). For MGH-U3 xenografts, after 21 days of treatment, tumor volume was 70% lower in mice treated with TYRO3 siRNA than in mice treated with control siRNA (Wilcoxon rank-sum test, p<0.001) (FIGS. 12A and 12B).

TYRO3 [6] = experiment: TYRO3 mRNA levels in MGH-U3 xenografts by Q-RT-PCR; type: in vivo, athymic nude mice; details: 3 days after the last siRNA injection, Student's t-test p<0,001
Excerpt: FIG. 13 is a graph showing TYRO3 mRNA levels for MGH-U3 xenografts, 3 days after the last siRNA injection, divided by TBP (TATA binding protein) mRNA levels+/−SD in treated and control tumors, as assessed by Q-RT-PCR.

[7] = siRNA treated xenografts, data not shown

Which results are given for “TYRO3 siRNA: siRNA anti-TYRO3 comprising the sequence of SEQ ID No. 1 (GGUGUGCCAUUUUUCACAGTT; chemistry not given here)”?
inhibition of TYRO3 mRNA and protein levels (TYRO3 [1]): 80-90%; viable cells versus control siRNA [2]: fewer viable; effect on viable cells (MCF7 cells): no effect; apoptotic rate (TUNEL) (bladder cancer cells [3]): increased apoptotic rate; change in cell-cycle progression (bladder cancer cells [4]): significant but low change; viable colonies in soft agar assays [5]: fewer viable; tumor volume lower than in mice treated with control siRNA (MGH-U3 xenografts; MGH-U3 xenografts, after 21 days of treatment, 4 μg siRNA intraperitoneal three times a week, p<0.001): 70%; apoptosis in treated tumors (TUNNEL analysis) (MGH-U3 xenografts; [7]): increase apoptosis; histological difference between treated and control tumors (MGH-U3 xenografts; [7]): No histological difference; TYRO3 mRNA levels in tumors (TYRO3 [6]): significant decrease
